Results taken from patent publication US8167866B2, “Drug delivery system for accelerated subcutaneous absorption” (priority 2004, dated 2012).

Experiments:
cutaneous blood vessels = assay: topical application of aqueous solution, erythema of the affected area; type: in vivo, human; details: patient, within minutes
Text: The fluid or the solution of pharmacologic drug may include a crystalloid solution or a dilute solution of pharmacologic drug such as an antibiotic. The drug used to accelerate the absorption rate of the fluid or the pharmacologic drug is operative to cause capillary vasodilatation, that is, vasodilatation of cutaneous blood vessels. The dilation of capillaries increases the rate of blood flowing through the affected subcutaneous tissue; and consequently, increases the rate of absorption into the systemic circulation of the fluid or pharmacologic drug. As the rate of absorption and circulation of the fluid or pharmacologic drug increases, a clinically significant degree of systemic absorption of the fluid or pharmacologic drug can be achieved without the application of IV access. Currently, many drugs are available to provide the vasodilatation of cutaneous blood vessels of a human body. However, it is appreciated that those drugs which are pharmacologic and potentially toxic to the human bodies are not the appropriate candidates for such drug. For example, although lidocaine is effective to cause dilation of capillaries and increase the rate of blood flowing through affected subcutaneous tissue, which in turn accelerates the absorption rate of drug, it might not be an appropriate candidate for such a drug due to its potentially toxic effect if its concentration is too high. […]

[1] = typical duration; routine lidocaine versus tumescent infiltration; cited from earlier work

Structure (SMILES)	erythema of the affected area (cutaneous blood vessels)	duration of local anesthesia [1]
CNC(=O)c1cccnc1 [methyl-nicotinamide]	very obvious erythema	
COC(=O)c1cccnc1 [methyl-nicotinate]	very obvious erythema	
CCN(CC)CC(=O)Nc1c(C)cccc1C [lidocaine]		~2 h
